# According to the Kinase Knowledgebase extract (Sharma et al. 2016):
# Biological target: PIK3CB (Human) (UniProt P42338)
# Test: Enzyme Assay
# Chain of PIK3CB (Human) (P42338 whole entry, looked up): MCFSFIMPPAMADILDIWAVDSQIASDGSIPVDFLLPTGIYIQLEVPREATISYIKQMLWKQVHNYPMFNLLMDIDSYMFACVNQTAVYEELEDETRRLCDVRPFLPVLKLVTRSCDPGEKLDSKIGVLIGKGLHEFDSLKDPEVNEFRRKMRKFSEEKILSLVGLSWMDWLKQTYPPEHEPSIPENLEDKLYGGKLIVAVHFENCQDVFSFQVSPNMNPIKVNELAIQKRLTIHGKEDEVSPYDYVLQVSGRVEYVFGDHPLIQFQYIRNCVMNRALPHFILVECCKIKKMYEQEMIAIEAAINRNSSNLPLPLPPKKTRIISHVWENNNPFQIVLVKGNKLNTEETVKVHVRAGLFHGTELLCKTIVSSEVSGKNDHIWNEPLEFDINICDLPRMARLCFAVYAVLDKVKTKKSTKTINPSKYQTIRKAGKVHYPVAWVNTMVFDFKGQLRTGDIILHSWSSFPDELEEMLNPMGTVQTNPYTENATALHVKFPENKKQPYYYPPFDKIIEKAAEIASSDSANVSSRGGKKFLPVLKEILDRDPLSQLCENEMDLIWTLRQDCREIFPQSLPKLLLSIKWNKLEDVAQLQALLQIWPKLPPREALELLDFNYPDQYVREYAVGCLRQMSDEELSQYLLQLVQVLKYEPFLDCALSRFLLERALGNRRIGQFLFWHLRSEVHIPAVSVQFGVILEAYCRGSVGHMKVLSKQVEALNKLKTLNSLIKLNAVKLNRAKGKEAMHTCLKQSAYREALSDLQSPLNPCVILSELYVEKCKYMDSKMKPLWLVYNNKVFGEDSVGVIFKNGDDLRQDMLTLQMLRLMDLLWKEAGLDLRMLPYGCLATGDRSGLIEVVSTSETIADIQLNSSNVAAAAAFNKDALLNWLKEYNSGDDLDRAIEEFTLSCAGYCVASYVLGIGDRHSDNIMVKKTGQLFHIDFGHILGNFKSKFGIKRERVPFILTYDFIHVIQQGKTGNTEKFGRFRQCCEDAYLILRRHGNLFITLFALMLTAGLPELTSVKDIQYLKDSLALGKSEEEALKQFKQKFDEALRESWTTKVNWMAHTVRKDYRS
row,IC50,Structure (SMILES)
1,0.088 µM,C[C@H](Nc1nc(N)nc(N)c1C#N)c1nc2cccc(Cl)c2c(=O)n1C[C@H]1CCCNC1
2,0.34 µM,C[C@H](Nc1ncnc(N)c1C#N)c1nc2cccc(Cl)c2c(=O)n1CCN1CCN(C)CC1
3,0.079 µM,C[C@H](Nc1nc(N)nc(N)c1C#N)c1nc2cccc(Cl)c2c(=O)n1C[C@@H]1CCCNC1

# Biological target: PIK3CD (Human) (UniProt O00329)
# Test: Enzyme Assay
# Chain of PIK3CD (Human) (O00329 whole entry, looked up): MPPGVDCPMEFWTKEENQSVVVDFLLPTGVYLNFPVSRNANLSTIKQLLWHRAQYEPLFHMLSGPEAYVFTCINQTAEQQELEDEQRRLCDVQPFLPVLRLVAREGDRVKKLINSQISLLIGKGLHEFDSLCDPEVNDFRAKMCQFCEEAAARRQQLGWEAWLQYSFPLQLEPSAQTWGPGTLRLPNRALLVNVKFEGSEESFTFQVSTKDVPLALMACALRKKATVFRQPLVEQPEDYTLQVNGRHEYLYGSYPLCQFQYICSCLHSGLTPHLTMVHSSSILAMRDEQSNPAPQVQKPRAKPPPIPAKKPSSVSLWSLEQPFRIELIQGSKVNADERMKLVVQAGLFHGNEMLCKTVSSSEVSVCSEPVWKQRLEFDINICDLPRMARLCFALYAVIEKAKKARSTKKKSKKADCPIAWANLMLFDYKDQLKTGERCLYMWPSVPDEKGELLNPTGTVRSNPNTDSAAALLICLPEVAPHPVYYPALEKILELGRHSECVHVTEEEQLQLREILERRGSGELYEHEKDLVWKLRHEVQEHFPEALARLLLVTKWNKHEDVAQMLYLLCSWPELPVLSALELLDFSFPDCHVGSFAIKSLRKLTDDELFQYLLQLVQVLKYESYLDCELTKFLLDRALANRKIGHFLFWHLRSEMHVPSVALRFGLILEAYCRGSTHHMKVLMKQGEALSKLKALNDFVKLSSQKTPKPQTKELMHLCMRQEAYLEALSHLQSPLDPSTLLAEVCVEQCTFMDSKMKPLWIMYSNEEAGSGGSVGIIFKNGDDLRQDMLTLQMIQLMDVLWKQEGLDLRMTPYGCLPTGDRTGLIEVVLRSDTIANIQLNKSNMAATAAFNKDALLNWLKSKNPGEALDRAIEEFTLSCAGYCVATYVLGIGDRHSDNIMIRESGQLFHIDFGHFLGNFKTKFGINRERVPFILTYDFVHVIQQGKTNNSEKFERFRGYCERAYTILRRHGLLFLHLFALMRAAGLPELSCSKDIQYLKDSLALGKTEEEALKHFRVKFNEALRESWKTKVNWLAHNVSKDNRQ
row,IC50,Structure (SMILES)
1,0.002 µM,C[C@H](Nc1nc(N)nc(N)c1C#N)c1nc2cccc(Cl)c2c(=O)n1C[C@H]1CCCNC1
2,0.011 µM,C[C@H](Nc1ncnc(N)c1C#N)c1nc2cccc(Cl)c2c(=O)n1CCN1CCN(C)CC1
3,0.003 µM,C[C@H](Nc1nc(N)nc(N)c1C#N)c1nc2cccc(Cl)c2c(=O)n1C[C@@H]1CCCNC1

# Biological target: PIK3CG (human) (UniProt P48736)
# Sequence (P48736 whole entry, looked up): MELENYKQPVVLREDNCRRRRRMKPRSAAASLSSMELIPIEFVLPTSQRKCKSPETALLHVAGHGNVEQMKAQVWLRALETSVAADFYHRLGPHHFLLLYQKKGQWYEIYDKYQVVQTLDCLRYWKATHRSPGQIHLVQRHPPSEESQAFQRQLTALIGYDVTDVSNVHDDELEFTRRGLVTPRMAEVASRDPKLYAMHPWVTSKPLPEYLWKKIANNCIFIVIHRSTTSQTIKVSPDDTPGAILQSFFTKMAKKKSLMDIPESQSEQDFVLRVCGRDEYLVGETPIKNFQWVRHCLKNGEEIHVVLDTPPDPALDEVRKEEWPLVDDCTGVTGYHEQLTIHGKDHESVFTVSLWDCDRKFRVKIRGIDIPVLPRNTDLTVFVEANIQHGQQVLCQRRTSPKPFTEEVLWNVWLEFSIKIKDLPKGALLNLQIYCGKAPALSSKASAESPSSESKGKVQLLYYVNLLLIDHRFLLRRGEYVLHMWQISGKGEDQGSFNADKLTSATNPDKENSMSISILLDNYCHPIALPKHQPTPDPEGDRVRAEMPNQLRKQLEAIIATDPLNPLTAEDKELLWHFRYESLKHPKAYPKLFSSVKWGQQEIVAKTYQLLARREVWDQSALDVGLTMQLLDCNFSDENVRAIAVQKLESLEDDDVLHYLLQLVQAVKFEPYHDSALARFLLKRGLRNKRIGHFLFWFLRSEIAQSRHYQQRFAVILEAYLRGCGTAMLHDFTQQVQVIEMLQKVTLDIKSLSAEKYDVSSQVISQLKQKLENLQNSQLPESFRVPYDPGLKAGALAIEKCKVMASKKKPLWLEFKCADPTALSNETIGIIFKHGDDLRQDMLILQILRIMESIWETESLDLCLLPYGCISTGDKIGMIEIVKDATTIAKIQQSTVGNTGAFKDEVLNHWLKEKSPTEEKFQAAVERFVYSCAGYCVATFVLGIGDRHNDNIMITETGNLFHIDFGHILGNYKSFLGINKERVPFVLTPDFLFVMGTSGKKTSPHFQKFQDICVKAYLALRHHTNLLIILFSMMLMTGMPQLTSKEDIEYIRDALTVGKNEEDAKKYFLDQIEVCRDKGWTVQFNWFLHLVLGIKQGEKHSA
# Test: Enzyme Assay
row,Structure (SMILES),IC50
1,NCCCn1c([C@@H](Nc2nc(N)nc(N)c2Cl)C2CC2)nc2cccc(Cl)c2c1=O,≥ 10 µM
2,C[C@H](Nc1ncnc(N)c1C#N)c1nc2cccc(Cl)c2c(=O)n1CC1CCCNC1 (stereo not given in full),≥ 10 µM
3,C[C@H](Nc1nc(N)nc(N)c1C#N)c1nc2cccc(Cl)c2c(=O)n1N(CCN)Cc1ccccc1,≥ 10 µM
4,CC(CN)n1c([C@H](C)Nc2ncnc(N)c2C#N)nc2cccc(Cl)c2c1=O (stereo not given in full),≥ 10 µM
5,CC[C@H](Nc1ncnc(N)c1C#N)c1nc2cccc(Cl)c2c(=O)n1CCCN,≥ 10 µM
6,CC(C)C[C@H](Nc1ncnc(N)c1C#N)c1nc2cccc(Cl)c2c(=O)n1CCCN,≥ 10 µM
7,C[C@H](Nc1ncnc(N)c1C#N)c1nc2cccc(Cl)c2c(=O)n1C[C@@H](O)CO,≥ 10 µM
8,CC(CCN)n1c([C@H](C)Nc2ncnc(N)c2C#N)nc2cccc(Cl)c2c1=O (stereo not given in full),≥ 10 µM
9,CNCCCn1c([C@H](C)Nc2ncnc(N)c2C#N)nc2cccc(Cl)c2c1=O,≥ 10 µM
10,Cc1ncnc(N[C@@H](C)c2nc3cccc(Cl)c3c(=O)n2CCCN)c1C#N,≥ 10 µM
11,C[C@H](Nc1ncnc(N)c1C#N)c1nc2cccc(Cl)c2c(=O)n1CCCN1CCN(C)CC1,≥ 10 µM
12,C[C@H](Nc1ncnc(N)c1C#N)c1nc2cccc(Cl)c2c(=O)n1CCC(C)(C)N,≥ 10 µM
13,C[C@H](Nc1ncnc(N)c1C#N)c1nc2cccc(Cl)c2c(=O)n1CC1CCCCN1 (stereo not given in full),≥ 10 µM
14,CC(CN)Cn1c([C@H](C)Nc2ncnc(N)c2C#N)nc2cccc(Cl)c2c1=O (stereo not given in full),≥ 10 µM
15,COCCCn1c([C@H](C)Nc2ncnc(N)c2C#N)nc2c(Cl)ccc(Cl)c2c1=O,> 10 µM
16,Nc1nc(N)c(Cl)c(N[C@H](c2nc3c(Cl)ccc(Cl)c3c(=O)n2[C@H]2C[C@@H](O)C2)C2CC2)n1,≥ 10 µM
17,C[C@H](Nc1ncnc(N)c1C#N)c1nc2cccc(Cl)c2c(=O)n1CCCCN,≥ 10 µM
18,N#Cc1c(N)nc(N)nc1N[C@@H](c1ccccc1)c1nc2cccc(Cl)c2c(=O)n1CCCN,≥ 10 µM
19,C[C@H](Nc1ncnc(N)c1C#N)c1nc2cccc(Cl)c2c(=O)n1CC1CCNCC1,≥ 10 µM
20,C[C@H](Nc1ncnc(N)c1C#N)c1nc2cccc(Cl)c2c(=O)n1[C@H]1C[C@H](N)C1,≥ 10 µM
21,C[C@H](Nc1ncnc(N)c1Cl)c1nc2cccc(Cl)c2c(=O)n1CCCN,≥ 10 µM
22,C[C@H](Nc1ncnc2scnc12)c1nc2cccc(Cl)c2c(=O)n1CCC(C)(C)N,≥ 10 µM
23,C[C@H](Nc1ncnc2[nH]cnc12)c1nc2cccc(Cl)c2c(=O)n1CCCN1CCOCC1,≥ 10 µM

# Further lines, results first:
row,IC50,Structure (SMILES)
1,≥ 10 µM,C[C@H](Nc1ncnc(N)c1C#N)c1nc2cccc(Cl)c2c(=O)n1CCN1CCCC1
2,≥ 10 µM,COCCCn1c([C@H](C)Nc2ncnc(N)c2C#N)nc2c(F)ccc(F)c2c1=O
3,≥ 10 µM,C[C@H](Nc1ncnc(N)c1C#N)c1nc2cccc(Cl)c2c(=O)n1CC1CCCN1 (stereo not given in full)
4,≥ 10 µM,C[C@H](Nc1ncnc(N)c1C#N)c1nc2cccc(Cl)c2c(=O)n1N(CCN)Cc1ccccc1
5,3.2 µM,C[C@H](Nc1nc(N)nc(N)c1C#N)c1nc2cccc(Cl)c2c(=O)n1C[C@H]1CCCNC1
6,≥ 10 µM,C[C@H](Nc1nc(N)nc(N)c1C#N)c1nc2cccc(Cl)c2c(=O)n1CCN1CCCC1
7,≥ 10 µM,C[C@H](Nc1ncnc(N)c1C#N)c1nc2cccc(Cl)c2c(=O)n1CCN
8,≥ 10 µM,NCCCn1c([C@@H](Nc2ncnn3ccnc23)C2CC2)nc2cccc(Cl)c2c1=O
9,≥ 10 µM,C[C@H](Nc1ncnc(N)c1C#N)c1nc2cccc(Cl)c2c(=O)n1CCCN(C)C
10,≥ 10 µM,C[C@H](Nc1ncnn2ccnc12)c1nc2cccc(Cl)c2c(=O)n1CCCN
11,≥ 10 µM,C[C@H](Nc1nc(N)nc(N)c1Cl)c1nc2cccc(Cl)c2c(=O)n1CCCN
12,≥ 10 µM,C[C@H](Nc1ncnc(N)c1C#N)c1nc2cccc(Cl)c2c(=O)n1CCCNCc1ccccc1
13,≥ 10 µM,C[C@H](Nc1ncnc(N)c1C#N)c1nc2cccc(Cl)c2c(=O)n1CCCN1CCCCC1
14,≥ 10 µM,C[C@H](Nc1ncnc(N)c1C#N)c1nc2cccc(Cl)c2c(=O)n1CC1CCNC1 (stereo not given in full)
15,≥ 10 µM,Cc1cccc2nc([C@H](C)Nc3ncnc(N)c3C#N)n(CCCN)c(=O)c12
16,≥ 10 µM,C[C@H](Nc1ncnc(N)c1C#N)c1nc2cccc(Cl)c2c(=O)n1CC1CNCCO1 (stereo not given in full)
17,≥ 10 µM,C[C@H](NC(=O)c1nccnc1N)c1nc2cccc(Cl)c2c(=O)n1CCCN
18,≥ 10 µM,C[C@H](Nc1ncnc(N)c1C#N)c1nc2cccc(Cl)c2c(=O)n1N(C)CCN
19,≥ 10 µM,N#Cc1c(N)ncnc1N[C@H](c1nc2cccc(Cl)c2c(=O)n1CCCN)C1CC1
20,≥ 10 µM,C[C@H](Nc1ncnc(N)c1C#N)c1nc2cccc(Cl)c2c(=O)n1CCN1CCN(C)CC1
21,1.3 µM,C[C@H](Nc1nc(N)nc(N)c1C#N)c1nc2cccc(Cl)c2c(=O)n1C[C@@H]1CCCNC1
